From article PMC9774648, “Synthesis, Physicochemical Properties and Molecular Docking of New Benzothiazole Derivatives as Antimicrobial Agents Targeting DHPS Enzyme” (Antibiotics, 2022)
Values after ≈ are worked out from the molar mass of the structure shown. Like-named read-outs stand apart in the source and are kept apart here.

Columns and labels:
S. mutans (ATCC: 25175) = assay: Agar well diffusion, inhibition zone, S. mutans; assay type: cell-based; settings: agar well diffusion, 15 mg/mL, 100 μL per well, 37 °C 24 h, mean ± SD, triplicate; for zone of inhibition at 15000 µg/mL: Streptococcus mutans, read-out: Diameter of the Inhibition Zone, S. mutans
E. coli (ATCC: 3008) = assay: Agar well diffusion, inhibition zone, E. coli; assay type: cell-based; settings: for zone of inhibition at 15000 µg/mL: Escherichia coli, read-out: Diameter of the Inhibition Zone, E. coli
[1] = system: P. aeruginosa (ATCC: 27853); assay: Agar well diffusion, inhibition zone, P. aeruginosa; assay type: cell-based; settings: for zone of inhibition at 15000 µg/mL: Pseudomonas aeruginosa, read-out: Diameter of the Inhibition Zone, P. aeruginosa
S. mutans = assay: MIC, twofold serial dilution, S. mutans; assay type: cell-based; settings: Streptococcus mutans; twofold serial dilution in broth, 37 °C 16–20 h; read-out: The Minimum Inhibitory Concentration (MIC), S. mutans
S. aureus = assay: MIC, twofold serial dilution, S. aureus; assay type: cell-based; settings: Staphylococcus aureus; twofold serial dilution in broth, 37 °C 16–20 h; read-out: The Minimum Inhibitory Concentration (MIC), S. aureus
Experimental: The new synthetic compounds, 6a–c, 12a–c, 14a–c, 16a–c and 19a–e, were tested in vitro to evaluate antibacterial activities against Gram-negative and Gram-positive bacteria, such as E. coli (ATCC: 3008), K. pneumonia (ATCC: 4415) and P. aeruginosa (ATCC: 27853), as an example for Gram-negative bacteria, as well as S. aureus (ATCC: 6538) and S. mutans (ATCC: 25175) for Gram-positive bacteria. The antifungal activities were evaluated also for the novel compounds in vitro against C. albicans (ATCC: 10231). The antibacterial and antifungal activities were determined by the agar-diffusion method using gentamicin, ampicillin and sulfadiazine, example of sulfa drug, as standard drugs against Gram-negative and Gram-positive, while nystatin was used as standard drug against the fungal strain. Table 1 summarizes the results for all tested compounds as the average diameter of inhibition zones of microbial growth around the discs in mm ± SD.
For each strain, three to five isolated colonies were selected from the fresh agar plate and were transferred into a tube containing 3–4 mL of sterile broth medium. The bacterial suspension was mixed well and incubated at 35–37 °C for 2–6 h. The turbidity of the bacterial suspension should be equal to or greater than the turbidity of a McFarland Standard 0.5. After that, 1 mg of the tested compound (antimicrobial agent) was dissolved in 1 mL DMSO and two-fold serial dilution was done using broth medium. A fixed volume of the prepared bacterial inoculum was added to each tube and incubated for at 37 °C 16–20 h. The MIC is defined as the lowest concentration of the antimicrobial agent that inhibits visible growth of the tested isolate as observed with the unaided eye.

[2] = system: K. pneumonia (ATCC: 4415); assay: Agar well diffusion, inhibition zone, K. pneumonia; assay type: cell-based; settings: for zone of inhibition at 15000 µg/mL: Klebsiella pneumoniae, read-out: Diameter of the Inhibition Zone, K. pneumonia
S. aureus (ATCC: 6538) = assay: Agar well diffusion, inhibition zone, S. aureus; assay type: cell-based; settings: agar well diffusion, 15 mg/mL, 100 μL per well, 37 °C 24 h, mean ± SD, triplicate; for zone of inhibition at 15000 µg/mL: Staphylococcus aureus, read-out: Diameter of the Inhibition Zone, S. aureus
[3] = system: C. albicans (ATCC: 10231); assay: Agar well diffusion, inhibition zone, C. albicans; assay type: cell-based; settings: 15 mg/mL, 100 μL per well, mean ± SD, triplicate; for zone of inhibition at 15000 µg/mL: Candida albicans, read-out: Diameter of the Inhibition Zone, C. albicans
P. aeruginosa = assay: MIC, twofold serial dilution, P. aeruginosa; assay type: cell-based; settings: Pseudomonas aeruginosa, read-out: The Minimum Inhibitory Concentration (MIC), P. aeruginosa
K. pneumonia = assay: MIC, twofold serial dilution, K. pneumonia; assay type: cell-based; settings: Klebsiella pneumoniae, read-out: The Minimum Inhibitory Concentration (MIC), K. pneumonia
[4] = molecular target: DHPS enzyme (dihydropteroate synthase) (Bacillus anthracis, UniProt Q81VW8); assay: biochemical; settings: for inhibition at 0.1 µg/mL / inhibition at 1 µg/mL / inhibition at 10 µg/mL / inhibition at 100 µg/mL: read-out: Inhibition % against DHPS enzyme
[5] = agar well diffusion, 15 mg/mL, 100 μL per well, 37 °C 24 h, mean ± SD, triplicate
[6] = twofold serial dilution in broth, 37 °C 16–20 h

DHPS enzyme (dihydropteroate synthase), sequence (Q81VW8 1-280): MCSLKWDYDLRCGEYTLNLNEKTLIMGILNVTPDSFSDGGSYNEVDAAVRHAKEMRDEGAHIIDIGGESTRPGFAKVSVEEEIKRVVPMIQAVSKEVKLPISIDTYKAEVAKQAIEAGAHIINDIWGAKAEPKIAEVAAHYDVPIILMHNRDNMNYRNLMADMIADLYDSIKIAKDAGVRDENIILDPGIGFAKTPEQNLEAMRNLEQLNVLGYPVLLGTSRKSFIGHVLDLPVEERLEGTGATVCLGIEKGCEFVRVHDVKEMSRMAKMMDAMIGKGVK

Compound	zone of inhibition at 15000 µg/mL (S. mutans (ATCC: 25175)) [mm]	Diameter of the Inhibition Zone, E. coli (E. coli (ATCC: 3008); [5])	melting point [°C]	Diameter of the Inhibition Zone, P. aeruginosa [1, 5]	MIC (S. mutans) [µM]	MIC (S. aureus) [µM]	Diameter of the Inhibition Zone, K. pneumonia [2, 5]	zone of inhibition at 15000 µg/mL (S. aureus (ATCC: 6538)) [mm]	zone of inhibition at 15000 µg/mL [3] [mm]	MIC (P. aeruginosa; [6]) [µM]	zone of inhibition at 15000 µg/mL [1, 5] [mm]	IC50 [4] [µM]	inhibition at 0.1 µg/mL ([4]; 0.1 μg/mL) [%]	inhibition at 1 µg/mL ([4]; 1 μg/mL) [%]	inhibition at 10 µg/mL ([4]; 10 μg/mL) [%]	inhibition at 100 µg/mL ([4]; 100 μg/mL) [%]	also measured
Nc1c(C(=O)Nc2ccc(Cl)cc2)cc(-c2nc3ccccc3s2)c(=O)n1NS(=O)(=O)c1ccc(Cl)cc1 [Compound 6b, 2-Amino-5-(benzo[d]thiazole-2-yl)-N-(4-chlorophenyl)-1-(4-chlorophenylsulfonamido)-6-oxo-1,6-dihydropyridine-3–carboxamide]	15.3 ± 0.5	-	334 to 336	-	1700 (≈ 1000 µg/mL)	1700 (≈ 1000 µg/mL)	-	18.3 ± 0.6									
Cc1ccc(S(=O)(=O)NNC(=O)/C(=C/c2ccc(F)cc2)c2nc3ccccc3s2)cc1 [Compound 14a]	18.3 ± 0.6	-	201 to 202	-	2140 (≈ 1000 µg/mL)	1070 (≈ 500 µg/mL)	-	19.3 ± 0.6	20.6 ± 0.6								
Cc1ccc(S(=O)(=O)NNC(=O)/C(=C/c2ccc(Cl)cc2)c2nc3ccccc3s2)cc1 [Compound 14b]	21.6 ± 0.6	-	188 to 189		258 (≈ 125 µg/mL)	129 (≈ 62.4 µg/mL)		31.6 ± 0.6		517 (≈ 250 µg/mL)	24.3 ± 0.6	34.6	12	24	47	65	MIC (K. pneumonia; [6]): 1030 µM (≈ 500 µg/mL); zone of inhibition at 15000 µg/mL [2, 5]: 15.6 ± 0.6 mm
Cc1ccc(/C=C(/C(=O)NNS(=O)(=O)c2ccc(C)cc2)c2nc3ccccc3s2)cc1 [Compound 14c, N-(2-(Benzo[d]thiazole-2-yl)-3-(p-tolyl)acryloyl)-4-methylbenzene-sulfonohydrazide]	20.3 ± 0.6	-	195 to 196.5	-	539 (≈ 250 µg/mL)	135 (≈ 62.6 µg/mL)	-	30.3 ± 0.6	11.3 ± 0.5			56.4	8.6	21	46	59	
O=c1[nH][nH]c(-c2ccc(Cl)cc2)c1-c1nc2ccccc2s1 [Compound 16b, 4-(Benzo[d]thiazole-2-yl)-5-(4-chlorophenyl)-1H-pyrazol-3(2H)-one]	24.6 ± 0.6	-	236 to 237.5		191 (≈ 62.6 µg/mL)	191 (≈ 62.6 µg/mL)	-	35.3 ± 0.6	10.6 ± 0.5	762 (≈ 250 µg/mL)	25.6 ± 0.6	23.9	16	31	52	72	
Cc1ccc(-c2[nH][nH]c(=O)c2-c2nc3ccccc3s2)cc1 [Compound 16c, 4-(Benzo[d]thiazole-2-yl)-5-(p-tolyl)-1H-pyrazol-3(2H)-one]	31.3 ± 0.6	-	239 to 241	-	203 (≈ 62.4 µg/mL)	25 (≈ 7.68 µg/mL)		40.3 ± 0.6				35.9	13	31	48	68	MIC (K. pneumonia; [6]): 813 µM (≈ 250 µg/mL); zone of inhibition at 15000 µg/mL [2, 5]: 24.3 ± 0.6 mm
O=C(NNS(=O)(=O)c1ccccc1)/C(=N/Nc1ccccc1)c1nc2ccccc2s1 [Compound 19a, N′-(2-(Benzo[d]thiazol-2-yl)-2-(2-phenylhydrazono)acetyl)benzenesulfono-hydrazide]		-	246 to 248.6	-			-		10.3 ± 0.5								Diameter of the Inhibition Zone, S. mutans (S. mutans (ATCC: 25175)): -; Diameter of the Inhibition Zone, S. aureus (S. aureus (ATCC: 6538)): -
Cc1ccc(NN=C(C(=O)NNS(=O)(=O)c2ccccc2)c2nc3ccccc3s2)cc1 [Compound 19c, N′-(2-(Benzo[d]thiazol-2-yl)-2-(2-(4-methylphenyl)hydrazono)acetyl)benzene-sulfonohydrazide]		-	262 to 263				-	11 ± 1	11.6 ± 0.5	2150 (≈ 1000 µg/mL)	16 ± 1						Diameter of the Inhibition Zone, S. mutans (S. mutans (ATCC: 25175)): -
Cc1ccc(S(=O)(=O)NNC(=O)/C(=N/Nc2ccc(Cl)cc2)c2nc3ccccc3s2)cc1 [Compound 19d, N′-(2-(Benzo[d]thiazol-2-yl)-2-(2-(4-chlorophenyl)hydrazono)acetyl)-4-methylbenzenesulfono-hydrazide]		-	280 to 281				-			500 (≈ 250 µg/mL)	21.6 ± 0.6						Diameter of the Inhibition Zone, S. mutans (S. mutans (ATCC: 25175)): -; Diameter of the Inhibition Zone, S. aureus (S. aureus (ATCC: 6538)): -
CNC(C)C1CCC(N)C(OC2C(N)CC(N)C(OC3OCC(C)(O)C(NC)C3O)C2O)O1 (stereo not drawn) [Gentamicin, reference compound]																	MIC (P. aeruginosa): 131 µM (≈ 62.6 µg/mL); zone of inhibition at 15000 µg/mL (E. coli (ATCC: 3008); 24 h): 27 ± 0.5 mm; zone of inhibition at 15000 µg/mL ([1]; 24 h): 30 ± 0.5 mm; MIC (K. pneumonia): 65 µM (≈ 31 µg/mL); zone of inhibition at 15000 µg/mL ([2]; 24 h): 25 ± 0.5 mm
C[C@@H]1[C@H](O)[C@@H](C)/C=C/C=C/CC/C=C/C=C/C=C/C=C/C(O[C@H]2O[C@H](C)[C@@H](O)[C@H](N)[C@@H]2O)CC2O[C@](O)(CC(O)C(O)CCC(O)CC(O)CC(O)CC(=O)O[C@H]1C)CC(O)C2C(=O)O (stereo partly drawn) [Nystatin, reference compound]																	Diameter of the Inhibition Zone, C. albicans [3]: 21.0 ± 0.5 mm
Nc1ccc(S(=O)(=O)Nc2ncccn2)cc1 [Sulfadiazine, reference compound]	22.2 ± 1.1				499 (≈ 125 µg/mL)	2000 (≈ 500 µg/mL)		21.5 ± 0.6		999 (≈ 250 µg/mL)	20.6 ± 1.4	28.5					zone of inhibition at 15000 µg/mL (E. coli (ATCC: 3008); [5]): 21.4 ± 0.4 mm; MIC (K. pneumonia; [6]): 999 µM (≈ 250 µg/mL); zone of inhibition at 15000 µg/mL [2, 5]: 15.9 ± 0.9 mm; inhibition at 0.1 µg/mL [4]: 11%; inhibition at 1 µg/mL [4]: 26%; inhibition at 10 µg/mL [4]: 56%; inhibition at 100 µg/mL [4]: 75%
